Reference: patent US4971967A, “Quinolinecarboxylic acid derivatives, antibacterial compositions and use” (Kanebo Ltd, priority 1989, dated 1990)
≈ marks a conversion by molar mass, not a printed value. Structures can show the parent of a compound that is named as a salt.

Columns and labels:
Type in all cases: cell-based
[1] = test system: Morganella morganii IFO 3848; test: Antibacterial activity (MIC), Morganella morganii IFO 3848; conditions: for MIC: Morganella morganii, IFO3848, Morganella morganii IFO 3848, Gram -, read-out: Minimum inhibitory concentration (MIC)
Experimental: (§1) The compounds of the present invention (A, C, D, E, F, G, H, I, J, L, O and P) and the known compound (X) as reference were dissolved in 0.1 N aqueous sodium hydroxide to prepare a solution of 5000 μg/ml in concentration. The compounds of the present invention (B, K, M and N) and the known compound (Y) were dissolved in sterilized distilled water to prepare a solution of 5000 μg/ml in concentration. Each solution was diluted with sterilized distilled water to prepare a standard solution with a concentration of each test compound: 1000 μg/ml. The test was carried out by a method as appointed by Japan Society of Chemotherapy [cf. Chemotherapy, 29, 76-79 (1981)(TOKYO)].

[2] = test system: Escherichia coli NIHJ JC-2; test: Antibacterial activity (MIC), E. coli NIHJ JC-2; conditions: NIHJJC2; Escherichia coli NIHJ JC-2, Gram -; read-out: Minimum inhibitory concentration (MIC)
Experimental: as §1

[3] = test system: Pseudomonas aeruginosa NCTC 10490; test: Antibacterial activity (MIC), P. aeruginosa NCTC 10490; conditions: for MIC: Pseudomonas aeruginosa, NCTC10490, Pseudomonas aeruginosa NCTC 10490, Gram -, read-out: Minimum inhibitory concentration (MIC)
Experimental: as §1

[4] = test system: Proteus vulgaris OX-19; test: Antibacterial activity (MIC), Proteus vulgaris OX-19; conditions: OX19; Proteus vulgaris OX-19, Gram -; read-out: Minimum inhibitory concentration (MIC)
Experimental: as §1

[5] = test system: Citrobacter freundii NIHJ 10018-68; test: Antibacterial activity (MIC), Citrobacter freundii NIHJ 10018-68; conditions: for MIC: Citrobacter freundii, NIHJ10018, Citrobacter freundii NIHJ 10018-68, Gram -, read-out: Minimum inhibitory concentration (MIC)
Experimental: as §1

[6] = test system: Klebsiella pneumoniae PCI-602; test: Antibacterial activity (MIC), Klebsiella pneumoniae PCI-602; conditions: PCI602; Klebsiella pneumoniae PCI-602, Gram -; read-out: Minimum inhibitory concentration (MIC)
Experimental: as §1

[7] = test system: Shigella sonnei EW-33; test: Antibacterial activity (MIC), Shigella sonnei EW-33; conditions: for MIC: Shigella sonnei, EW33, Shigella sonnei EW-33, Gram -, read-out: Minimum inhibitory concentration (MIC)
Experimental: as §1

[8] = test system: Escherichia coli KC-14; test: Antibacterial activity (MIC), E. coli KC-14; conditions: KC14; Escherichia coli KC-14, Gram -; read-out: Minimum inhibitory concentration (MIC)
Experimental: as §1

[9] = test system: Pseudomonas aeruginosa E-2; test: Antibacterial activity (MIC), P. aeruginosa E-2; conditions: E2; Pseudomonas aeruginosa E-2, Gram -; read-out: Minimum inhibitory concentration (MIC)
Experimental: as §1

[10] = test system: Staphylococcus aureus FDA 209P JC-1; test: Antibacterial activity (MIC), S. aureus FDA 209P JC-1; conditions: FDA209P; Staphylococcus aureus FDA 209P JC-1, Gram +; read-out: Minimum inhibitory concentration (MIC)
Experimental: as §1

[11] = test system: Proteus mirabilis IFO 3849; test: Antibacterial activity (MIC), Proteus mirabilis IFO 3849; conditions: IFO3849; Proteus mirabilis IFO 3849, Gram -; read-out: Minimum inhibitory concentration (MIC)
Experimental: as §1

[12] = test system: Enterobacter cloacae 963; test: Antibacterial activity (MIC), Enterobacter cloacae 963; conditions: for MIC: Enterobacter cloacae, 963, Enterobacter cloacae 963, Gram -, read-out: Minimum inhibitory concentration (MIC)
Experimental: as §1

[13] = test system: Streptococcus faecalis IID 682; test: Antibacterial activity (MIC), Streptococcus faecalis IID 682; conditions: Enterococcus faecalis, IID682, Streptococcus faecalis IID 682, Gram +; read-out: Minimum inhibitory concentration (MIC)
Experimental: as §1

[14] = test system: Bacillus subtilis ATCC 6633; test: Antibacterial activity (MIC), Bacillus subtilis ATCC 6633; conditions: for MIC: Bacillus subtilis, ATCC6633, Bacillus subtilis ATCC 6633, Gram +, read-out: Minimum inhibitory concentration (MIC)
Experimental: as §1

[15] = test system: Micrococcus luteus ATCC 9341; test: Antibacterial activity (MIC), Micrococcus luteus ATCC 9341; conditions: ATCC9341; Micrococcus luteus ATCC 9341, Gram +; read-out: Minimum inhibitory concentration (MIC)
Experimental: as §1

[16] = test system: Salmonella typhimurium IID 971; test: Antibacterial activity (MIC), Salmonella typhimurium IID 971; conditions: Salmonella enterica; Salmonella typhimurium IID 971, Gram -; read-out: Minimum inhibitory concentration (MIC)
Experimental: as §1

[17] = test system: Pseudomonas aeruginosa IFO 3445; test: Antibacterial activity (MIC), P. aeruginosa IFO 3445; conditions: for MIC: Pseudomonas aeruginosa, IFO3445, Pseudomonas aeruginosa IFO 3445, Gram -, read-out: Minimum inhibitory concentration (MIC)
Experimental: as §1

[18] = test system: Staphylococcus aureus IID 803; test: Antibacterial activity (MIC), S. aureus IID 803; conditions: IID803; Staphylococcus aureus IID 803, Gram +; read-out: Minimum inhibitory concentration (MIC)
Experimental: as §1

[19] = test system: Serratia marcescens IAM 1184; test: Antibacterial activity (MIC), Serratia marcescens IAM 1184; conditions: for MIC: Serratia marcescens, IAM1184, Serratia marcescens IAM 1184, Gram -, read-out: Minimum inhibitory concentration (MIC)
Experimental: as §1

[20] = test system: Enterobacter aerogenes ATCC 13048; test: Antibacterial activity (MIC), Enterobacter aerogenes ATCC 13048; conditions: Klebsiella aerogenes, ATCC13048; Enterobacter aerogenes ATCC 13048, Gram -; read-out: Minimum inhibitory concentration (MIC)
Experimental: as §1

[21] = test system: Staphylococcus epidermidis IAM-1296; test: Antibacterial activity (MIC), S. epidermidis IAM-1296; conditions: for MIC: Staphylococcus epidermidis, IAM1296, Staphylococcus epidermidis IAM-1296, Gram +, read-out: Minimum inhibitory concentration (MIC)
Experimental: as §1

[22] = test system: Acinetobacter calcoaceticus AC 54; test: Antibacterial activity (MIC), Acinetobacter calcoaceticus AC 54; conditions: AC54; Acinetobacter calcoaceticus AC 54, Gram -; read-out: Minimum inhibitory concentration (MIC)
Experimental: as §1

Compound | MIC [1] [µg/mL] | MIC [2] [µg/mL] | MIC [3] [µg/mL] | MIC [4] [µg/mL] | MIC [5] [µg/mL] | MIC [6] [µg/mL] | MIC [7] [µg/mL] | MIC [8] [µg/mL] | MIC [9] [µg/mL] | MIC [10] [µg/mL] | MIC [11] [µg/mL] | MIC [12] [µg/mL] | MIC [13] [µg/mL] | MIC [14] [µg/mL] | MIC [15] [µg/mL] | MIC [16] [µg/mL] | MIC [17] [µg/mL] | MIC [18] [µg/mL] | MIC [19] [µg/mL] | MIC [22] [µg/mL] | also measured
CN1Cc2csc3c(C(=O)O)c(=O)c4cc(F)c(N5CCC(N)C5)c1c4n23 (stereo not drawn) [(H), 9,1-(Methylimino)methano-7-fluoro-8-(3-amino-1-pyrrolidinyl)-5-oxo-5H-thiazolo[3,2-a]quinoline-4-carboxylic acid] | 0.05 (≈ 0.129 µM) | 0.05 (≈ 0.129 µM) | 0.2 (≈ 0.515 µM) | 0.0125 (≈ 0.0322 µM) | 0.1 (≈ 0.257 µM) | 0.006 (≈ 0.0154 µM) | 0.05 (≈ 0.129 µM) | 0.0125 (≈ 0.0322 µM) | 0.39 (≈ 1 µM) | 0.025 (≈ 0.0644 µM) | 0.1 (≈ 0.257 µM) | 0.05 (≈ 0.129 µM) | 0.05 (≈ 0.129 µM) | 0.006 (≈ 0.0154 µM) | 0.2 (≈ 0.515 µM) | 0.05 (≈ 0.129 µM) | 0.2 (≈ 0.515 µM) | 0.006 (≈ 0.0154 µM) | 0.1 (≈ 0.257 µM) | 0.0125 (≈ 0.0322 µM) | MIC [20]: 0.05 µg/mL (≈ 0.129 µM); MIC [21]: 0.05 µg/mL (≈ 0.129 µM)
CN1CCN(c2c(F)cc3c(=O)c(C(=O)O)c4scc5n4c3c2N(C)C5)CC1 [Compound (B), 9,1-(Methylimino)methano-7-fluoro-8-(4-methyl-1-piperazinyl)-5-oxo-5H-thiazolo [3,2-a]quinoline-4-carboxylic acid hydrochloride] |  |  |  |  |  |  |  |  |  |  |  |  |  |  |  |  |  |  |  | 0.05 | Minimum inhibitory concentration (MIC) ([1]; Morganella morganii IFO 3848, Gram -, hydrochloride): 0.10 µg/mL; Minimum inhibitory concentration (MIC) ([3]; Pseudomonas aeruginosa NCTC 10490, Gram -, hydrochloride): 0.39 µg/mL; Minimum inhibitory concentration (MIC) ([5]; Citrobacter freundii NIHJ 10018-68, Gram -, hydrochloride): 0.39 µg/mL; Minimum inhibitory concentration (MIC) ([7]; Shigella sonnei EW-33, Gram -, hydrochloride): 0.05 µg/mL; Minimum inhibitory concentration (MIC) ([12]; Enterobacter cloacae 963, Gram -, hydrochloride): 0.10 µg/mL; Minimum inhibitory concentration (MIC) ([14]; Bacillus subtilis ATCC 6633, Gram +, hydrochloride): 0.025 µg/mL; Minimum inhibitory concentration (MIC) ([17]; Pseudomonas aeruginosa IFO 3445, Gram -, hydrochloride): 0.78 µg/mL; Minimum inhibitory concentration (MIC) ([19]; Serratia marcescens IAM 1184, Gram -, hydrochloride): 0.39 µg/mL; Minimum inhibitory concentration (MIC) ([21]; Staphylococcus epidermidis IAM-1296, Gram +, hydrochloride): 0.10 µg/mL
CN1Cc2csc3c(C(=O)O)c(=O)c4cc(F)c(N5CCNCC5)c1c4n23 [Compound (C), 9,1-(Methylimino)methano-7-fluoro-8-(1-piperazinyl)-5-oxo-5H-thiazolo[3,2-a]quinoline-4-carboxylic acid] | 0.05 (≈ 0.129 µM) | 0.05 (≈ 0.129 µM) | 0.2 (≈ 0.515 µM) | 0.006 (≈ 0.0154 µM) | 0.1 (≈ 0.257 µM) | 0.006 (≈ 0.0154 µM) | 0.025 (≈ 0.0644 µM) | 0.05 (≈ 0.129 µM) | 0.39 (≈ 1 µM) | 0.05 (≈ 0.129 µM) | 0.1 (≈ 0.257 µM) | 0.05 (≈ 0.129 µM) | 0.05 (≈ 0.129 µM) | 0.006 (≈ 0.0154 µM) | 0.39 (≈ 1 µM) | 0.05 (≈ 0.129 µM) | 0.39 (≈ 1 µM) | 0.05 (≈ 0.129 µM) | 0.2 (≈ 0.515 µM) | 0.025 (≈ 0.0644 µM) | MIC [20]: 0.05 µg/mL (≈ 0.129 µM); MIC [21]: 0.05 µg/mL (≈ 0.129 µM)
